Literature values in patent US11872245B2, “Antiseptic polymer and synthesis thereof” (TRIMPH IP PTY LIMITED, priority 2015, dated 2024).

Experiments:
IIb3 = IIb3 (Homo sapiens, UniProt P05106+P08514)
V3 = V3 (Homo sapiens, UniProt P05106+P06756)
Sequence of V3 (P06756 31-1048): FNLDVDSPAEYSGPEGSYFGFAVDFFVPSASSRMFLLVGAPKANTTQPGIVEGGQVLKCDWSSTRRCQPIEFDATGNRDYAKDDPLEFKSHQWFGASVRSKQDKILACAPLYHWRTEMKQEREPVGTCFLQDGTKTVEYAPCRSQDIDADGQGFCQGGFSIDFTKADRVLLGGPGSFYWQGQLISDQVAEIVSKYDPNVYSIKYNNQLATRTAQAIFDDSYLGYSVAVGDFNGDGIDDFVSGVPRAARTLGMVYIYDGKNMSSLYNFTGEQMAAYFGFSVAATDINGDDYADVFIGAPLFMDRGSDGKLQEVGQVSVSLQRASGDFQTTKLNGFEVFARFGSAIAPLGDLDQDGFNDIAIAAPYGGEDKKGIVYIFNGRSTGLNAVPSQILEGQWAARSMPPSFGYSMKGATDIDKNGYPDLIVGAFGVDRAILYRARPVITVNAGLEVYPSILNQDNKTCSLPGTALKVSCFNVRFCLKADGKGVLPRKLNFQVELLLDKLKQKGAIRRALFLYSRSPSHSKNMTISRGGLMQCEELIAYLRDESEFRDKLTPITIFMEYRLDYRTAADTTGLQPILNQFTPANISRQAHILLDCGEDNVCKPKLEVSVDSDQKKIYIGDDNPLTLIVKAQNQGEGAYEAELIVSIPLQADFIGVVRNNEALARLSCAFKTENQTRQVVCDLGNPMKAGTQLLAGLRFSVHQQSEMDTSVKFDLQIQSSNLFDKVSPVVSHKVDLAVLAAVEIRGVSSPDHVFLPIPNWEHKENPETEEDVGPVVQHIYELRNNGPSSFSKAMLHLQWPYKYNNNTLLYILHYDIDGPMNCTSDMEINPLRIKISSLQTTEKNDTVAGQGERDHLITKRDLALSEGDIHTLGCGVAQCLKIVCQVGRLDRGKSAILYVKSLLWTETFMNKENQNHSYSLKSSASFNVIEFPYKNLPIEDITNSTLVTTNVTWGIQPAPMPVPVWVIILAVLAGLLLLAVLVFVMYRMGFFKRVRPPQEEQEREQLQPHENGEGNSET
Sequence of V3 (P05106 27-788): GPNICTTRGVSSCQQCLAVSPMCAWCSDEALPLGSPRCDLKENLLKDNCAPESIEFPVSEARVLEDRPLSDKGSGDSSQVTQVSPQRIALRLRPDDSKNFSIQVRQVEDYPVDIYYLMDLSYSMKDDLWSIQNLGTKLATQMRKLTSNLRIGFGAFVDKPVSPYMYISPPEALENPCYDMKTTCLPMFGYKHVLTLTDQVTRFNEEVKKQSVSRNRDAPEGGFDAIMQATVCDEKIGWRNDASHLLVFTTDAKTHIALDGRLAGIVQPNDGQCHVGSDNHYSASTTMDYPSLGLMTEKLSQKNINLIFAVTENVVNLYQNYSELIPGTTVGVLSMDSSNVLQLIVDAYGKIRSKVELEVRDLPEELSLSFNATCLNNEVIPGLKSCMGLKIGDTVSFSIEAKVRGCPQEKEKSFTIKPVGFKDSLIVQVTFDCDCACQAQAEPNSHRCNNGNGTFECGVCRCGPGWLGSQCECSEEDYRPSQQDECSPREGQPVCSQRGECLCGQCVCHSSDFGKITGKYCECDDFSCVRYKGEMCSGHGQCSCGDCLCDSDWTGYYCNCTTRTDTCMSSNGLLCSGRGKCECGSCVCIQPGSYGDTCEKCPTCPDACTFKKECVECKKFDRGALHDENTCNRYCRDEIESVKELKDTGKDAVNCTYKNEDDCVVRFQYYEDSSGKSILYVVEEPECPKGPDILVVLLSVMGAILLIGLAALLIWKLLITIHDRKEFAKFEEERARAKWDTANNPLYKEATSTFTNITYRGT

Sequence of IIb3 (P08514 32-1039): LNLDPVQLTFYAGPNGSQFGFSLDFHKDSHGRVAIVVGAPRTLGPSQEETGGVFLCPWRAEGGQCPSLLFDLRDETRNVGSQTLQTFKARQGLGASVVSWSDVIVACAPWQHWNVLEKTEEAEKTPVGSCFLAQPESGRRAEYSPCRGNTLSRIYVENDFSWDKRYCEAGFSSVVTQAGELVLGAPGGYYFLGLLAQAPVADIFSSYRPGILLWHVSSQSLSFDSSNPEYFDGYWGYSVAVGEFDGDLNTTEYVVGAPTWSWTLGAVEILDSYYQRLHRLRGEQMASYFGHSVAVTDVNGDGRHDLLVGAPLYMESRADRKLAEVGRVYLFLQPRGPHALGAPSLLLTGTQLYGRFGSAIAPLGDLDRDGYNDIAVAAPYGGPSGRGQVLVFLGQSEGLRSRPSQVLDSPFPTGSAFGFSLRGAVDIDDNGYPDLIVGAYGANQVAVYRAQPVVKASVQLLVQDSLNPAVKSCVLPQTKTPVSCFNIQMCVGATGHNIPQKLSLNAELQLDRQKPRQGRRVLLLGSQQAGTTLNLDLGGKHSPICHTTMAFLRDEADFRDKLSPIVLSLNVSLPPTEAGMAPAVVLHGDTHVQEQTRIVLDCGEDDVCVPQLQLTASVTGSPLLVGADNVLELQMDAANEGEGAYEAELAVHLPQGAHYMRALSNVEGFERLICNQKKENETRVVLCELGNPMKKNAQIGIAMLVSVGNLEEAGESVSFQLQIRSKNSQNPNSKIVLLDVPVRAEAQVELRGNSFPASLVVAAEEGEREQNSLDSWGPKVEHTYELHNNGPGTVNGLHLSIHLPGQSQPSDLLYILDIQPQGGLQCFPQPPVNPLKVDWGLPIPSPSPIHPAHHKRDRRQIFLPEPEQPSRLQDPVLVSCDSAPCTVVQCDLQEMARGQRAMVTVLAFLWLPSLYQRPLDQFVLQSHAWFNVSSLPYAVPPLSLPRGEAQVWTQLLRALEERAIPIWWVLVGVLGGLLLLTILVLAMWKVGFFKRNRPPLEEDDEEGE
Sequence of IIb3 (P05106 27-788): as the sequence (P05106 27-788) above

affinity (IIb3): intermediate affinity | affinity (V3): intermediate affinity
Substance: {GLY}{ARG}{GLY}{ASP}{SER} [GRGDS]
